From patent publication US20220133618A1, “Low Surfactant Personal Care Compositions” (The Procter & Gamble Company, priority 2020, published 2022)

Columns and labels:
[1] = system: keratinocytes on de-epidermized dermis (DED); experiment: TEWL (transepidermal water loss) on organotypic epidermis cultures; type: cell-based, human; details: topical treatment 20 minutes, washed, reading after 24 hours; higher value = worse
From the text: TEWL (transepidermal water loss) is a common clinical measure used to compare the mildness of surfactant-based formulations for skin (Rogiers 2001; Berardesca and Maibach 1990; Brink et al. 2019; O'Connor, Ogle, and Odio 2016; Thune et al. 1988). TEWL is considered to provide a relative understanding of individual skin barrier quality in relation to onset of disease, environmental impacts and exposure to topical formulations, such as consumer products (Alexander et al. 2018). […]
De-epithelialized dermis (DED) was prepared by removing fat from the skin sample with a scalpel, cutting the skin into squares measuring 1.25 cm^2, and placing the samples in 1M NaCl plus 10× penicillin/streptomycin. […] The following day, the epidermis was carefully peeled off with forceps and dermal tissue was stored in phosphate-buffered saline (PBS) plus 2× penicillin/streptomycin at 4° C. until ready for use. […]
At day 7 at the air-liquid interface, the cultures were treated topically with full or diluted formulas by cotton swab or by pipetting 6-50 ul, depending on product viscosity. […] Once equilibrated the cultures were placed on the lid of a sterile 150 mm petri dish and TEWL readings were taken using a Delfin Vapometer containing a silicone O-ring adaptor provided by the manufacturer. […]

[2] = Syringe filter polymer cleaning procedure (syringe method); details: Table 4; controls; Decyl Glucoside 2% starting active before dilution
Experimental: Procedure for Syringe Filter Polymer Cleaning
1) materials used in syringe cleaning procedure: • A. 0.15% Oil Red 0 dyed >95% pure Glyceryl Trioleate oil (See below—Procedure for preparing 0.15% Oil Red 0 dyed Triolein oil (Glyceryl trioleate)) • B. Syringe Filters: 30 mm, 5 um Nylon syringe filters; (Thermo Fischer Scientific Co, Waltham, Mass.: Part #F2500-50) • C. 24 ml Norm-ject luer (slip tip) syringes Ref #4200-00V0 (These are silicone free syringes) • D. Isopropanol (IPA) • E. Polymer Solutions/mixtures—diluted with distilled water to the desired percentage (typically 0.5% for a polymer only solution and 10% for a full formulation unless otherwise noted in the examples). • F. Plastic drain tubing having a diameter to fit over the slip tip of the syringe filter tightly
Syringe Pump Settings • Syringe Diameter: 20 mm (Note: The volume of liquid dispensed by the syringe is based on the diameter of the syringe and diameter setting must be changed if using different sizes of syringes). • Dispensing Volume set point: 5 mls • Cleaning Dispensing Rate: 5 mls/min • IPA Extraction Rate: 2.5 ml/min
• 1. Coat the slip tip side of the syringe filter (see FIG. 5) using a micro pipettor with 48-50 mg of Oil 0 Red dyed Triolein oil by setting the micro-pipettor to a volume of ˜58 ul to compensate for the lower density of the dyed oil. • 2. Slowly fill the pipette tip with oil. […]

SMILES	TEWL Mean [1]	% Sebum Removed with Syringe Method [2] [%]
CCCCCCCCCCCCOS(=O)(=O)[O-].[Na+] [SLS (10%)]	26.03	–
CCCCCCCCCCO[C@@H]1O[C@H](CO)[C@@H](O)[C@H](O)[C@H]1O [Sample C3, Decyl Glucoside]	–	51
